Measured values published in US12697366B2, “Thermogenic compositions and methods” (Ohio State Innovation Foundation, priority 2016, dated 2026).

Tested on: 3T3-L1 preadipocytes
Experiment: FD-glucose uptake in 3T3-L1 preadipocytes
Type: cell-based, mouse
Settings: for glucose uptake compared to non-stimulated 3T3-L1 preadipocytes: 30 mins, insulin 10 μg/ml, EREG 50 ng/ml, forskolin 4 μg/ml
Procedure: Non-differentiated, 90% confluent 3T3-L1 cells were starved with glucose-deprived medium for 40 min. Then cells were treated in the presence and absence of different concentrations of nanoscaffold #2 and bovine insulin (200 μg/mL), all of reagents dissolved in the same glucose-deprived medium but containing fluorescent-D (FD)-glucose for 80 min. Thereafter, the FD glucose uptake was measured according to manufacturer's instructions (Cayman Chemical, USA, cat #600471). […] Non-differentiated, 90% confluent 3T3-L1 cells treated in the presence and absence of different concentrations of nanoscaffold #2 and bovine insulin (10 μg/mL) or mouse epiregulin (EREG, 0.05 μg/mL) and incubated for 24 h. Then cells were starved with glucose-deprived medium for 40 min and, then incubated with fluorescent-D (FD)-glucose for 80 min. Thereafter, the FD glucose uptake was measured according to manufacturer's instructions (Cayman Chemical, USA, cat #600471). Data are shown as percent of uptake in the presence of insulin (100%).
Non-differentiated, 90% confluent 3T3-L1 cells treated in the presence of bovine insulin (10 μg/mL), mouse epiregulin (EREG, 0.05 μg/mL), or their combinations and incubated for 24 h. Then cells were starved with glucose-deprived medium for 40 min and, then incubated with fluorescent-D (FD)-glucose for 80 min. Thereafter, the FD glucose uptake was measured according to manufacturer's instructions (Cayman Chemical, USA, cat #600471).
Non-differentiated, 90% confluent 3T3-L1 cells were starved with glucose-deprived medium for 50 min. Then cells were treated in the presence and absence of different concentrations of mouse recombinant IGFBP4 with and without nanoscaffold #2 and human insulin (10 μg/mL). All of reagents were dissolved in the same glucose-deprived medium but containing fluorescent-D (FD)-glucose for 90 min. Thereafter, the FD glucose uptake was measured according to manufacturer's instructions (Cayman Chemical, USA, cat #600471).
Glucose uptake assay was performed using glucose uptake cell-based assay kit (Cayman Chemical, Ann Arbor, MI). 3T3-L1 or human preadipocytes were cultured at a density of 5×10^4 per well into a 96-well plate (n=7) in high glucose media and grown overnight. Old cell culture medium was removed the next day and washed with PBS to remove residual glucose. Supplied 2-deoxy-2-[(7-nitro-2,1,3-benzoxadiazol-4-yl)amino]-D-glucose) (2-NBDG) was diluted to 150 μg/mL in DMEM medium without glucose, phenol red, L-glutamine, sodium pyruvate, and HEPES (Life technologies, Grand Island, New York). 100 μL of 2-NBDG glucose free medium with or without recombinant EREG and other treatments was added to the plated cells. After incubating at 37° C. for 30 minutes, cells were washed gently two times with 200 μL of glucose assay buffer. 100 μL of the assay buffer was added to each well and measured for fluorescence at an excitation/emission of 485/535 nm.
Fluorescence glucose uptake (FD-glucose assay) was performed as described PMID: 32065973, using insulin, 1.7 μM and different AACs at concentration 0.1 μM.
FD-glucose uptake in mouse 3T3-L1 preadipocytes (n=8 per treatment) treated with vehicle (Veh; PBS, open bar) or hINS (1.7 μM), mouse leptin (mLep; 12.5 nM, hatched bar), or AAC2 (0.1 μM black bar) in the presence and absence of GLUT1 inhibitor (BAY-876; 10 nM in DMSO). Cells were pre-treated with or without BAY-876 for 40 min and then FD glucose and treatment reagents were added for additional 80 min of incubation. Data (%) was normalized to FD-glucose uptake in control (Veh) 3T3-L1 cells without inhibitor (100%). Student's independent t-test.

Substance | glucose uptake compared to non-stimulated 3T3-L1 preadipocytes | glucose uptake, dose dependence (different EREG concentrations) | glucose uptake in preadipocytes (hINS 1.7 μM, AAC2 0.1 μM, 80 min, FIG. 42A)
EREG: Epiregulin, member of the epidermal growth factor family; recombinant mouse or human protein | 187% | dose-dependent fashion | –
insulin: insulin (bovine or human) | 174% | – | increase
